In one assay the test system is pancreatic NTX tumors. In words: Chemoresistance of tumor cell subpopulations in mice bearing pancreatic NTX tumors.
The test system of a further assay is colorectal NTX tumors. As to the kind of experiment: Chemoresistance of tumor cell subpopulations in mice bearing colorectal NTX tumors. To be noted: 15 mg/kg twice weekly. The format is in vivo. The protocol:
To assess chemoresistance of tumor cell subpopulations, in vivo cohorts of mice bearing NTX colorectal tumors were randomized into two groups, such that the average tumor volume for each group was roughly equal. The groups were then treated twice weekly with either 15 mg/kg irinotecan or an equivalent volume of vehicle buffer. Tumor volumes and animal health were monitored and recorded twice weekly, a day prior to each injection.

Protocol for pancreatic NTX tumors: Mice then received twice weekly intraperitoneal dosing of 15 mg/kg irinotecan or 25 mg/kg gemcitabine, respectively, for a period of approximately 20 days before they were euthanized for tumor resection and cellular analysis.
Harvested tumors were then dissociated and constituent single cells were analyzed by flow cytometry.

On to `Nc1ccn([C@@H]2O[C@H](CO)[C@@H](O)C2(F)F)c(=O)n1` [gemcitabine], for which the “tumor volume (growth of treated tumors)” value in the assay with pancreatic NTX tumors (25 mg/kg intraperitoneal twice weekly, vs vehicle-treated tumors that continued to grow unabated, FIG. 25A) is “decreased in volume”. The “residual tumor cell marker phenotype (CD46 expression)” value in the assay on pancreatic NTX tumors (25 mg/kg twice weekly, flow cytometry of harvested tumors, vehicle vs treated, FIG. 25B) was “enrichment for tumor cells expressing markers indicative of TIC”.

Turning to `CCc1c2c(nc3ccc(OC(=O)N4CCC(N5CCCCC5)CC4)cc13)-c1cc3c(c(=O)n1C2)COC(=O)[C@]3(O)CC` [irinotecan], the “frequency of cells with TPC phenotype (CD46hi CD324+ CD66c-) among live human cells, treated vs saline-treated” value with colorectal NTX tumors (flow cytometry of harvested tumors, FIGS. 24B and 24C) is “more than 2.5 fold”. Moreover, in the assay with colorectal NTX tumors (flow cytometry, in vehicle-treated tumors most residual cells were CD66c+, FIG. 24D), the “CD66c phenotype of residual cells among the CD46hi CD324+ population” value is “most residual cells were CD66c^−”.

The record behind these values is US9778264B2, “Identification and enrichment of cell subpopulations” (STEM CENTRX, INC., priority 2010, dated 2017).
